# Measurements as given in US20090069300A1, “ISOQUINOLINYL AND ISOINDOLINYL DERIVATIVES AS HISTAMINE-3 ANTAGONISTS” (Wyeth, priority 2007, published 2009).
# Where a name gives a salt, the structure may show the parent alone.
# Biological target: T1, Human Histamine H3 Receptor (Homo sapiens, UniProt Q9Y5N1)
# T1 construct: expressed in transfected cells; host or cells: HEK293T (stably transfected; membranes prepared from the cells)
# Test: Methyl histamine binding in human histamine H3 receptor cell line
# Details: read-out: H3 Binding Ki
# Method in brief: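 Radioligand binding on membranes (10 μg/well) from a human H3 receptor cell line, 1 nM radioligand, 1 h at 30° C. in 50 mM Tris pH 7.5. Nonspecific binding defined with 10 uM clobenpropit, followed by filtration and scintillation counting. IC50 from four-parameter fit, converted to Ki by Cheng-Prusoff.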
# T1 sequence (Q9Y5N1 whole entry): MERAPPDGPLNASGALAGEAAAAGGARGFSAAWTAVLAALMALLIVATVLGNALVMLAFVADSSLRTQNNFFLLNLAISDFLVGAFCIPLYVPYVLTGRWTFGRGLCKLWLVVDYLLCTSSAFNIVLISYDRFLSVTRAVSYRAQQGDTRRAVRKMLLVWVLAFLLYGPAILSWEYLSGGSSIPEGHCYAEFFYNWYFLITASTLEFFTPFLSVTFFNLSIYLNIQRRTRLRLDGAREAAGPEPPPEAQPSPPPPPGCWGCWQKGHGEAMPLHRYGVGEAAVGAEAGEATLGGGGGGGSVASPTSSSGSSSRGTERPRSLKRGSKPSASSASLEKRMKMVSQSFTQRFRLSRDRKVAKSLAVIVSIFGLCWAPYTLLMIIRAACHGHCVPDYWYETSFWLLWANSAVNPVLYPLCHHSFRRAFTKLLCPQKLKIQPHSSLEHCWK
row,Ki [nM],Structure (SMILES)
1,< 10,"O=C(NC1CCCC1)c1ccc(-c2ccc3c(c2)CCN(CCN2CCCC2)C3=O)cc1 [Example 55, N-cyclopentyl-4-[1-oxo-2-(2-pyrrolidin-1-ylethyl)-1,2,3,4-tetrahydroisoquinolin-6-yl]benzamide]"

# Test system: not given
# Test: not given
# Details: not given
row,melting point [°C],Structure (SMILES)
1,258 to 260,"O=C(NC1CCCC1)c1ccc(-c2ccc3c(c2)CCN(CCN2CCCC2)C3=O)cc1 [Example 55, N-cyclopentyl-4-[1-oxo-2-(2-pyrrolidin-1-ylethyl)-1,2,3,4-tetrahydroisoquinolin-6-yl]benzamide]"
2,243 to 244,"C[C@@H]1CCCN1CCN1CCc2cc(-c3ccc(C(=O)N4CCCC4)cc3)ccc2C1=O (as salt: hydrochloride) [Example 66, 2-{2-[(2R)-2-methylpyrrolidin-1-yl]ethyl}-6-[4-(pyrrolidin-1-ylcarbonyl)phenyl]-3,4-dihydroisoquinolin-1(2H)-one]"
3,248 to 250,"CC(C)NC(=O)c1ccc(-c2ccc3c(c2)C(=O)N(CCN2CCC[C@H]2C)CC3)cc1 (as salt: hydrochloride) [Example 85, N-isopropyl-4-(2-{2-[(2R)-2-methylpyrrolidin-1-yl]ethyl}-1-oxo-1,2,3,4-tetrahydroiso-quinolin-7-yl)benzamide]"
4,268 to 270,"NC(=O)c1ccc(-c2ccc3c(c2)CCN(CCN2CCCC2)C3=O)cc1 (as salt: hydrochloride) [Example 67, 4-[1-oxo-2-(2-pyrrolidin-1-ylethyl)-1,2,3,4-tetrahydroisoquinolin-6-yl]benzamide]"
5,164 to 166,"CC(C)OCCNC(=O)c1ccc(-c2ccc3c(c2)CCN(CCN2CCCC2)C3=O)cc1 (as salt: hydrochloride) [Example 70, N-(2-isopropoxyethyl)-4-[1-oxo-2-(2-pyrrolidin-1-ylethyl)-1,2,3,4-tetrahydroisoquinolin-6-yl]benzamide]"
6,210 to 211,"C[C@@H]1CCCN1CCN1CCc2cc(-c3ccc(C(=O)NC4CCC4)cc3)ccc2C1=O (as salt: hydrochloride) [Example 74, N-cyclobutyl-4-(2-{2-[(2R)-2-methylpyrrolidin-1-yl]ethyl}-1-oxo-1,2,3,4-tetrahydroisoquinolin-6-yl)benzamide]"
7,260 to 262,"C[C@@H]1CCCN1CCN1CCc2cc(-c3ccc(C(=O)NC4CCCC4)cc3)ccc2C1=O (as salt: hydrochloride) [Example 80, N-cyclopentyl-4-(2-{2-[(2R)-2-methylpyrrolidin-1-yl]ethyl}-1-oxo-1,2,3,4-tetrahydroisoquinolin-6-yl)benzamide]"
8,188 to 189,"CC(C)NC(=O)c1ccc(-c2ccc3c(c2)CCN(CCN2CCC[C@H]2C)C3=O)cc1 (as salt: hydrochloride) [Example 77, N-isopropyl-4-(2-{2-[(2R)-2-methylpyrrolidin-1-yl]ethyl}-1-oxo-1,2,3,4-tetrahydroisoquinolin-6-yl)benzamide]"
9,244 to 247,"C[C@H]1CCCN1CCN1CCc2cc(-c3ccc(F)cc3)ccc2C1=O (as salt: hydrochloride) [Example 39, 6-(4-fluorophenyl)-2-{2-[(2S)-2-methylpyrrolidin-1-yl]ethyl}-3,4-dihydroiso-quinolin-1(2H)-one hydrochloride]"
10,236 to 238,"C[C@@H]1CCCN1CCN1CCc2cc(-c3ccc(F)cc3)ccc2C1=O (as salt: hydrochloride) [Example 40, 6-(4-fluorophenyl)-2-{2-[(2R)-2-methylpyrrolidin-1-yl]ethyl}-3,4-dihydroisoquinolin-1(2H)-one]"
11,232 to 233,"COC[C@H](C)NC(=O)c1ccc(-c2ccc3c(c2)CCN(CCN2CCCC2)C3=O)cc1 (as salt: hydrochloride) [Example 126, N-[(1S)-2-methoxy-1-methylethyl]-4-[1-oxo-2-(2-pyrrolidin-1-ylethyl)-1,2,3,4-tetrahydroisoquinolin-6-yl]benzamide]"
12,257 to 259,"CC(C)NC(=O)c1ccc(-c2ccc3c(c2)CCN(CCN2CCCC2)C3=O)cc1 (as salt: hydrochloride) [Example 61, N-isopropyl-4-[1-oxo-2-(2-pyrrolidin-1-ylethyl)-1,2,3,4-tetrahydroisoquinolin-6-yl]benzamide]"

# The remaining lines, values behind:
row,Structure (SMILES),melting point [°C]
1,"O=C(c1ccc2c(c1)CCN(CCN1CCCC1)C2=O)N1CCCC1 (as salt: hydrochloride) [Example 38, 6-(pyrrolidin-1-ylcarbonyl)-2-(2-pyrrolidin-1-ylethyl)-3,4-dihydroisoquinolin-1(2H)-one hydrochloride]",194 to 196
2,"O=C1c2ccc(-c3ccc(F)c(F)c3)cc2CCN1CCN1CCCC1 (as salt: hydrochloride) [Example 17, 6-(3,4-difluorophenyl)-2-(2-pyrrolidin-1-ylethyl)-3,4-dihydroisoquinolin-1(2H)-one]",179 to 180
3,"C[C@@H]1CCCN1CCN1CCc2c(cccc2-c2cccc(C#N)c2)C1=O (as salt: hydrochloride) [Example 27, 3-(2-{2-[(2R)-2-methylpyrrolidin-1-yl]ethyl}-1-oxo-1,2,3,4-tetrahydroisoquinolin-5-yl)benzonitrile]",203 to 205
4,"C[C@@H]1CCCN1CCN1CCc2cc(C(=O)NC3CCC3)ccc2C1=O (as salt: hydrochloride) [Example 145, N-cyclobutyl-2-{2-[(2R)-2-methylpyrrolidin-1-yl]ethyl}-1-oxo-1,2,3,4-tetrahydroisoquinoline-6-carboxamide]",214 to 215
5,"O=C1c2ccc(-c3ccc(C(F)(F)F)cc3)cc2CCN1CCN1CCCC1 (as salt: hydrochloride) [Example 22, 2-(2-pyrrolidin-1-ylethyl)-6-[4-(trifluoromethyl)phenyl]-3,4-dihydroisoquinolin-1(2H)-one]",243 to 244
6,"CCN(C)C(=O)c1ccc(-c2ccc3c(c2)CCN(CCN2CCCC2)C3=O)cc1 (as salt: hydrochloride) [Example 124, N-ethyl-N-methyl-4-[1-oxo-2-(2-pyrrolidin-1-ylethyl)-1,2,3,4-tetrahydroisoquinolin-6-yl]benzamide]",200 to 201
7,"O=C(c1ccc(-c2ccc3c(c2)CCN(CCN2CCCC2)C3)cc1)N1CCCCC1 (as salt: hydrochloride) [Example 185, 6-[4-(piperidin-1-ylcarbonyl)phenyl]-2-(2-pyrrolidin-1-ylethyl)-1,2,3,4-tetrahydroisoquinoline]",270 to 272
8,"O=C(c1ccc2c(c1)CCN(CCN1CCCC1)C2=O)N1Cc2ccccc2C1 (as salt: hydrochloride) [Example 156, 6-(isoindoline-2-carbonyl)-2-(2-(pyrrolidin-1-yl)ethyl)-3,4-dihydroisoquinolin-1(2H)-one]",220 to 221
9,"O=C1c2ccc(N3CCCCC3)cc2CCN1CCN1CCCCC1 (as salt: hydrochloride) [Example 163, 6-(piperidin-1-yl)-2-(2-(piperidin-1-yl)ethyl)-3,4-dihydroisoquinolin-1(2H)-one]",245 to 246
10,"CNC(=O)c1ccc(-c2ccc3c(c2)CCN(CCN2CCCC2)C3=O)c(F)c1 (as salt: hydrochloride) [Example 139, 3-fluoro-N-methyl-4-[1-oxo-2-(2-pyrrolidin-1-ylethyl)-1,2,3,4-tetrahydroisoquinolin-6-yl]benzaimde]",188 to 190
11,"O=C1c2ccc(N3CCCCC3)cc2CCN1CCN1CCCCCC1 (as salt: hydrochloride) [Example 164, 2-(2-(azepan-1-yl)ethyl)-6-(piperidin-1-yl)-3,4-dihydroisoquinolin-1(2H)-one]",229 to 231
12,"C[C@@H]1CCCN1CCN1CCc2cc(Oc3ccc(C#N)nc3)ccc2C1=O (as salt: hydrochloride) [Example 51, 5-[(2-{2-[(2R)-2-methylpyrrolidin-1-yl]ethyl}-1-oxo-1,2,3,4-tetrahydroisoquinolin-6-yl)oxy]pyridine-2-carbonitrile]",218 to 220
13,"C[C@@H]1CCCN1CCN1CCc2cc(C(=O)N3Cc4ccccc4C3)ccc2C1=O (as salt: hydrochloride) [Example 152, 6-(1,3-dihydro-2H-isoindol-2-ylcarbonyl)-2-{2-[(2R)-2-methylpyrrolidin-1-yl]ethyl}-3,4-dihydroisoquinolin-1(2H)-one]",109 to 110
14,"N#Cc1ccc(Oc2ccc3c(c2)CCN(CCN2CCCC2)C3=O)cc1 (as salt: hydrochloride) [Example 50, 4-{[1-oxo-2-(2-pyrrolidin-1-ylethyl)-1,2,3,4-tetrahydroisoquinolin-6-yl]oxy}benzonitrile]",146 to 147
15,"CNC(=O)c1ccc(Oc2ccc3c(c2)CCN(CCN2CCCC2)C3=O)nc1 (as salt: hydrochloride) [Example 101, N-Methyl-6-(1-oxo-2-(2-(pyrrolidin-1-yl)ethyl)-1,2,3,4-tetrahydro-isoquinolin-6-yloxy)nicotinamide hydrochloride]",228 to 230
16,"CCN(CC)C(=O)c1ccc(-c2ccc3c(c2)CCN(CCN2CCCC2)C3=O)cc1 (as salt: hydrochloride) [Example 62, N,N-diethyl-4-[1-oxo-2-(2-pyrrolidin-1-ylethyl)-1,2,3,4-tetrahydroisoquinolin-6-yl]benzamide]",177 to 178
17,"O=C1c2ccc(-c3ccc4c(c3)OCO4)cc2CCN1CCN1CCCC1 (as salt: hydrochloride) [Example 21, 6-(1,3-benzodioxol-5-yl)-2-(2-pyrrolidin-1-ylethyl)-3,4-dihydroisoquinolin-1(2H)-one]",249 to 251
18,"O=C1c2ccc(-c3cccc(C(F)(F)F)c3)cc2CCN1CCN1CCCC1 (as salt: hydrochloride) [Example 20, 2-(2-pyrrolidin-1-ylethyl)-6-[3-(trifluoromethyl)phenyl]-3,4-dihydroisoquinolin-1(2H)-one]",138 to 139
19,"N#Cc1ccc2c(ccn2-c2ccc3c(c2)CCN(CCN2CCCC2)C3=O)c1 (as salt: hydrochloride) [Example 35, 1-[1-oxo-2-(2-pyrrolidin-1-ylethyl)-1,2,3,4-tetrahydroisoquinolin-6-yl]-1H-indole-5-carbonitrile Hydrochloride]",215 to 217
